Test results taken from patent US5206234A, “Benzolactam analogs as antagonists of CCK” (priority 1991, dated 1993).

Legend:
CCK-A receptors = conditions: cited from earlier work
anxiety (mice) = experiment: Black/white exploration test (anxiolytic activity); type: in vivo, mouse (male DBA2)
Text: The black/white exploration test [Crawley et al. Pharmacology, Biochemistry and Behav. 13, 167 (1980)] is a simple animal model of anxiety. Rodents placed in a two compartment box which consists of a brightly lit, white painted side and a dimly lit, black painted side, display a marked preference for the black side of the apparatus. This behavior is caused by the aversive properties of the brightly lit, white painted section. Classical anxiolytic drugs [such as diazepam, see Crawley, supra] and novel anxiolytic drugs [such as 5HT3 antagonists, see Jones et al. Br. J. Pharm.
A. Naive male DBA2 mice (25-30) were housed on a reversed light/dark cycle and tested during the dark phase of the cycle under dim red light. The apparatus consisted of an open topped box (40 cm long×27 cm wide×27 cm high) divided into a small area (2/5) and a large area (3/5) by a partition that extended 20 cm above the walls. There was a 7.5×7.5 cm opening in the partition at floor level. The small compartment was painted black and the large compartment white. The floor of each compartment was marked into 9 cm squares. The white compartment was illuminated by a 100 W tungsten bulb 17 cm above the box and the black compartment by a similarly placed 60 W red bulb.
Animals that had been injected with drug or vehicle were placed individually into the centre of the white area and their behavior observed during a 5 minute period by remote video recording. Four behavioral parameters were recorded every minute: the number of exploratory rears in the white and black sections, the number of line crossings in the black and white sections, the number of transitions between the two sections and the time spent in the black and white sections. Animals were tested in treatment groups of 8-10 and vehicle controls were run on each test day. Data were analysed by ANOVA and Dunnetts test.

[1] = system: exploratory behavior of the rat; experiment: Exploratory behavior in automated activity cages, novel environment; type: in vivo, rat (Male Sprague Dawley)
Protocol: (§1) B. The effects of CCK-8 and compound A on the exploratory behavior of the rat were examined in automated activity cages and by direct observation. It is known that exogenous CCK-8 decreases exploratory behavior in rats in a novel environment by accelerating the process of habituation. [See Crawley, Pharm. Biochem & Behav. 20, 23-27 (1984).]
Expt 1. Male Sprague Dawley rats were injected ([…].) with CCK-8 and immediately placed in automated activity cages. Activity was measured for 30 minutes past injection.
Expt 2. Male SD rats were injected (s.c.) with the CCK antagonist compound A (0.0001-10 mg/kg) and immediately placed in the automated activity cages.

[2] = system: exploratory behavior of the rat; experiment: Exploration in a novel environment by direct observation (perspex cage); type: in vivo; conditions: 0.1 mg/kg
Text: as §1
Expt 3. In order to assess further the effect of Compound A on exploration in a novel environment, the motoric hehaviors of rats placed in a perspex cage was recorded by direct observation for a 15 minute period 15 minutes after treatment with Compound A.
Experimenters (unaware of the treatments the animals had received) recorded the frequency and duration of rearing, sniffing, grooming and cage crossing using a keypad interfaced to a BBC microcomputer.

CCK receptor (Pancreas) = target: T1, CCK receptor (Pancreas) (Rattus norvegicus, UniProt P30551); experiment: CCK Receptor Binding (Pancreas), inhibition of 125I-CCK-33 binding; set-up: species or system rat (Male Sprague-Dawley); conditions: 125I-CCK-33, rat pancreas membranes
T1 construct: The whole pancreas was dissected free of fat tissue and was homogenized; from tissue; host or cells: pancreas membranes of male Sprague-Dawley rats
T1 sequence (P30551 1-444): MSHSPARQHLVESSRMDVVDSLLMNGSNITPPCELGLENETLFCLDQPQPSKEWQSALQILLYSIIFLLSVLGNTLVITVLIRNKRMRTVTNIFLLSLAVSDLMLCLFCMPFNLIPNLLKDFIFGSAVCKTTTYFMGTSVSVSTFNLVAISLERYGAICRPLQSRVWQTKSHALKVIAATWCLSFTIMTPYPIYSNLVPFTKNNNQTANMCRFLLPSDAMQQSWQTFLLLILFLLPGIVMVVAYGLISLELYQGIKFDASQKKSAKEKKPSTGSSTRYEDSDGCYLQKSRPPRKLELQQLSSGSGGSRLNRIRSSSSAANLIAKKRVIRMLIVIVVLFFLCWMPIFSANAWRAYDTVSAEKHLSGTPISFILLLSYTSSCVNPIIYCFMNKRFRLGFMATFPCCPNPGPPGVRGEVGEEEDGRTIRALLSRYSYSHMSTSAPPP
Protocol: CCK-33 was radiolabeled with ^125 I-Bolton Hunter reagent (2000 Ci/mmole) as described by Sankara et al. (J. Biol. Chem. 254: 9349-9351, 1979). Receptor binding was performed according to Innis and Snyder (Proc. Natl. Acad. Sci. 77, 6917-6921, 1980) with the minor modification of adding the additional protease inhibitors, phenylmethane sulfonyl fluoride and o-phenanthroline. The latter two compounds have no effect on the ^125 I-CCK receptor binding assay.
Male Sprague-Dawley rats (200-350 g) were sacrificed by decapitation. The whole pancreas was dissected free of fat tissue and was homogenized in 20 volumes of ice-cold 50 mM Tris HCl (pH 7.7 at 25° C.) with a Brinkmann Polytron PT 10. The homogenates were centrifuged at 48,000 g for 10 min. Pellets were resuspended in Tris Buffer, centrifuged as above and resuspended in 200 volumes of binding assay buffer (50 mM Tris HCl, pH 7.7 at 25° C., 5 mM dithiothrietol, 0.1 mM bacitracin, 1.2 mM phenylmethane sulfonyl fluoride and 0.5 mM o-phenanthroline). […] All assays were run in duplicate or triplicate. The reaction mixtures were incubated at 37° C. for 30 minutes and centrifuged in a Beckman Microfuge (4 minutes) immediately after adding 1 ml of ice-cold incubation buffer. The supernatant was aspirated and discarded, pellets were counted with a Beckman gamma 5000. For Scatchard analysis (Ann. N.Y. Acad. Sci. 51: 660, 1949), ^125 I-CCK-33 was progressively diluted with increasing concentrations of CCK-33.
A Ki value (dissociation constant of inhibitor) of the compounds of Formula I was estimated.

[3] = target: T2, CCK receptor (Brain, cerebral cortex) (Cavia porcellus, UniProt H0VZC5); experiment: CCK Receptor Binding (Brain), inhibition of 125I-CCK-33 binding; set-up: species or system guinea pig (Male Hartley); conditions: head prints ^25 I-CCK; guinea pig cerebral cortex
T2 construct: Cerebral cortex was dissected and used as a receptor source; from tissue; host or cells: cerebral cortex membranes of male Hartley guinea pigs
T2 sequence (H0VZC5 1-426): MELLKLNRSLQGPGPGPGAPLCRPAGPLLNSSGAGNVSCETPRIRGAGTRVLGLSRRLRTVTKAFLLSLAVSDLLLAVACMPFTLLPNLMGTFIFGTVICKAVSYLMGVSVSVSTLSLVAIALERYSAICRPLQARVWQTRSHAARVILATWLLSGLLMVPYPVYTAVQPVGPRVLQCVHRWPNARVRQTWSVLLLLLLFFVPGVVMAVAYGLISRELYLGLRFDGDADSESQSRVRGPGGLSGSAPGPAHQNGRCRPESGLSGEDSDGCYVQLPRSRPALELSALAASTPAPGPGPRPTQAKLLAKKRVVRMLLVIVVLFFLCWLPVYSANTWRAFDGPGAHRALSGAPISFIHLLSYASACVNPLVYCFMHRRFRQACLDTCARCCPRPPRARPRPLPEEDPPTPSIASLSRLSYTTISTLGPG
Protocol: CCK-33 was radiolabeled and the binding was performed according to the description for the pancreas method with modifications according to Saito et al., J. Neurochem. 37:483-490, 1981.
Male Hartley guinea pigs (300-500 g) were sacrificed by decapitation and the brains were removed and placed in ice-cold 50 mM Tris HCl plus 7.58 g/l Trizma-7.4 (pH 7.4 at 25° C.). Cerebral cortex was dissected and used as a receptor source. Each gram of fresh guinea pig brain tissue was homogenized in 10 ml of Tris/Trizma buffer with a Brinkman polytron PT-10. The homogenates were centrifuged at 42,000 g for 15 minutes. Pellets were resuspended in Tris Buffer, centrifuged as above and resuspended in 200 volumes of binding assay buffer (10 mM N-2-hydroxyethyl-piperazine-N'-2-ethane sulfonic acid (HEPES), 5 mM MgCl2, 0.25 mg/ml bacitracin, 1 mM ethylene glycol-bis-(β-aminoethylether-N,N'-tetraacetic acid) (EGTA), and 0.4% bovine serum albumin (BSA)). […] All assays were run in duplicate or triplicate. The reaction mixtures were incubated at 25° C. for 2 hours and centrifuged in a Beckman Microfuge (4 minutes) immediately after adding 1 ml of ice-cold incubation buffer. The supernatant was aspirated and discarded, pellets were counted with a Beckman gamma 5000.

[4] = target: T3, Gastrin receptor (Gastric Glands) (Cavia porcellus, UniProt H0VZC5); experiment: Gastrin Receptor Binding in Guinea Pig Gastric Glands; set-up: species or system guinea pig (male Hartley); conditions: head prints ^25 I-Gastrin, read-out: Receptor binding IC50, 125I-Gastrin Gastric Glands
T3 construct: from tissue; host or cells: gastric mucosal glands of male Hartley guinea pigs
T3 sequence (H0VZC5 1-426): T2 sequence (H0VZC5 1-426)
Protocol: Guinea pig gastric mucosal glands were prepared by the procedure of Berglingh and Obrink Acta Physiol. Scand. 96: 150 (1976) with a slight modification according to Praissman et al. C. J. Receptor Res. 3: (1983). Gastric mucosa from guinea pigs (300-500 g body weight, male Hartley) were washed thoroughly and minced with fine scissors in standard buffer consisting of the following: 130 mM NaCl, 12 mM NaHCO3, 3 mM NaH2 PO4, 3 mM Na2 HPO4, 3 mM K2 HPO4, 2 mM MgSO4, 1 mM CaCl2, 5 mM glucose and 4 mM L-glutamine, 25 mM HEPES at pH 7.4. The minced tissues were washed and then incubated in a 37° C. shaker bath for 40 minutes with the buffer containing 0.1% collagenase and 0.1% BSA and bubbled with 95% O2 and 5% CO2. The tissues were passed twice through a 5 ml glass syringe to liberate the gastric glands, and then filtered through 200 mesh nylon. The filtered glands were centrifuged at 270 g for 5 minutes and washed twice by resuspension and centrifugation.
The washed guinea pig gastric glands prepared as above were resuspended in 25 ml of standard buffer containing 0.25 mg/ml of bacitracin. For binding studies, to 220 μl of gastric glands in triplicate tubes, 10 μl of buffer (for total binding) or gastrin (1 μM final concentration, for nonspecific binding) or test compound and 10 μl of ^125 I-gastrin (NEN, 2200 Ci/mmole, 25 pM final) or ^3 H-pentagastrin (NEN 22 Ci/mmole, 1 nM final) were added. The tubes were aerated with 95% O2 and 5% CO2 and capped. The reaction mixtures after incubation at 25° C. for 30 minutes were filtered under reduced pressure on glass G/F B filters (Whatman) and immediately washed further with 4×4 ml of standard buffer containing 0.1% BSA. The radioactivity on the filters was measured using a Beckman gamma 5500 for ^125 I-gastrin or liquid scintillation counting for ^3 H-pentagastrin.

CCK-B receptors = conditions: cited from earlier work

Compound: CSCC[C@H](NC(=O)[C@H](Cc1ccc(O)cc1)NC(=O)[C@@H](N)CC(=O)O)C(=O)NCC(=O)N[C@@H](Cc1c[nH]c2ccccc12)C(=O)N[C@@H](CCSC)C(=O)N[C@@H](CC(=O)O)C(=O)N[C@@H](Cc1ccccc1)C(N)=O [CCK-8d]
- Affinity for CCK-A receptors (CCK-A receptors): lower affinity

Compound: CN1C(=O)[C@@H](NC(=O)c2cc3ccccc3[nH]2)N=C(c2ccccc2)c2ccccc21 [Compound A, 3(S)-(-)-1,3-dihydro-3-(2-indolecarbonylamino)-1-methyl-5-phenyl-2H-1,4-benzodiazepin-2-one]
- Preference for locomotion (line crossings) in the black side (anxiety (mice); 0.5, 5.0 and 500 ug/kg): abolished the preference for locomotion (line crossings) in the black side
- Difference in time spent in the black and white side (anxiety (mice); 5.0 and 500 ug/kg): abolished
- Active dose range (anxiety (mice); black/white exploration test, mice): 0.05 to 5.0 µg/kg
- Preference for rearing in the black side (anxiety (mice); doses of 0.05, 0.5, 5.0 and 500 ug/kg): significantly decreased the preference for rearing in the black side
- Habituation and period of exploratory activity ([1]; 0.0001-10 mg/kg s.c., F(6,124)=2.54, p<0.05): delayed habituation and prolonged the period of exploratory activity of the rats
- Level of activity at 25 minutes ([1]; 0.1 mg/kg s.c., 25 minutes, F(6.124)=3.18, p<0.01): significantly above controls
- Level of activity at 25 minutes ([1]; doses higher and lower than 0.1 mg/kg, bell-shaped dose response): no significant effect on activity
- Cage crossing ([2]; F(3,43)=3.79, P<0.05): significantly increased
- Sniffing ([2]; F(3,43)=3.96, P<0.01): significantly increased
- Rearing ([2]; F(3,43)=4.77, P<0.01): significantly increased

Compound: O=C(Nc1cccc2ccccc12)NC1CCc2ccccc2N(CC(=O)N2CCCC2)C1=O (stereo not shown) [Example 11, 1-{[2,3,4,5-Tetrahydro-3-{[[(1-naphthalenyl)amino]carbonyl]amino}-2-oxo-1H-1-benzazepin-1-yl]acetyl}pyrrolidine]
- IC50 (CCK receptor (Pancreas)): 1700 nM
- IC50 [3]: 650 nM
- IC50 [4]: 460 nM

Compound: Cc1ccc(NC(=O)NC2CCc3ccccc3N(CC(=O)OC(C)(C)C)C2=O)cc1 (stereo not shown) [Example 12]
- IC50 (CCK receptor (Pancreas)): 170 nM
- IC50 [3]: 660 nM
- IC50 [4]: 130 nM

Compound: CSCC[C@H](NC(=O)[C@H](Cc1c[nH]c2ccccc12)NC(=O)CCNC(=O)OC(C)(C)C)C(=O)N[C@@H](CC(=O)O)C(=O)N[C@@H](Cc1ccccc1)C(N)=O [pentagastrin]
- Affinity for CCK-B receptors (CCK-B receptors): high affinity

Compound: gastrin: structurally related neuropeptides which exist in gastrointestinal tissue and in the central nervous system
- Affinity for CCK-A receptors (CCK-A receptors): lower affinity
